Results published in patent US20230151437A1, “USE OF PROTEIN ASSEMBLIES TO RECORD CELLULAR EVENTS” (President and Fellows of Harvard College, priority 2021, published 2023).

Legend:
[1] = test system: Tet-ON transcription system; assay: Ticker tape recording of DOX activation of the Tet-ON system in HEK cells; type: cell-based
Procedure: FIGS. 16A-16B show recordings of impulse response of protein expression following pulsed doxycycline (DOX) activation in HEK293T cells. […] Transitions to JF669 at t=0 and to JFX608 at t=8 h provided fiducial timestamps. Transcription was activated via addition of 2 μg/mL DOX at t=−0.5 h, followed by a thorough wash at t=0 h. FIG. 16B provides three representative examples showing the GFP intensity profiles on the protein ticker tapes. Top: representative images. Bottom: fluorescence line profiles. Scale bars: […].
As the first test of a physiological recording, iPAK4 assemblies were used to report on a transcriptional activator, the tetracycline mediated Tet-ON transcription system.^28 HEK cells were co-infected with lentivirus containing CMV::iPAK4 (60%), CMV::rTTA3 (30%), CMV::HT-iPAK4 (5%), and CMV::eGFP-iPAK4 (5%) to establish tetracycline-dependent eGFP-iPAK4 expression (FIG. 4A). After assemblies had nucleated (24 h after lentiviral infection), JF552 was added to label the initial nuclei, and JF669 was added at t=0. In different dishes, doxycycline (DOX, 2 μg/mL) was added at t=2, 4, or 6 h to activate expression of eGFP-iPAK4. Then JF552 was added again at t=8 h, and the assemblies were grown for another 8-14 h before fixation and imaging (FIG. 4B).

[2] = test system: cFos promoter; assay: Ticker tape recording of PMA activation of cFos in neurons; type: cell-based, rat
From the text: In neurons co-expressing CMV::iPAK4 (90%) and cFos::eGFP-iPAK4 (10%), assemblies initially grew with little green fluorescence. […] Sequential additions of PMA to a single dish led to distinct bands of eGFP fluorescence, clearly resolved by sharp eGFP boundaries (FIG. 5G).
To measure timing of cFos activation relative to fiducial timestamps, CMV::iPAK4 (80%), CMV::HT-iPAK4 (10%), and cFos::eGFP-iPAK4 (10%; FIG. 5E) were co-expressed. The neurons were stained with JF552, and then switched to JF669 at t=0. PMA (1 μM) was then added at t=3, 6, or 9 h, and a second fiducial timestamp was introduced by switching back to JF552 at t=12 h. Assemblies were grown until t=22 h and then fixed and imaged (FIG. 5F).
Chemical activation of neuronal activity: The cFos promoter was activated by phorbol 12-myristate 13-acetate (PMA; Sigma Aldrich P8139). Briefly, the PMA was first diluted with DMSO to form a 1 mM stock solution. At the designated time, 2 μl PMA stock was directly added to each 14 mm glass-bottom culture dish, which contained 2 ml BPNM/SM1 medium. The dishes were then stirred gently to mix the PMA and medium. After PMA addition, the dishes were returned to an incubator at 37° C. with 5% CO2.

[3] = target: T1, intracellular HT receptors (HT-NLS) (Rhodococcus rhodochrous, UniProt P0A3G2, A155T/A167V/A172T/A224E/C128F/C176G/D78G/E160K/E257K/H272N/K175M/K195N/L47V/L88M/N227D/P291S/S2A/S58T/T264A/Y273L/Y87F); assay: Kinetics of HT dye labeling in HEK293T cells expressing HT-NLS; type: cell-based; conditions: for effective time constant of HT dye labeling: 1 μM dye, HEK293T cells; for first-order reaction rate constant of HT dye labeling: HEK293T cells expressing HT-NLS, 0.1 μM dye, combined membrane permeation and HT reaction
T1 construct: host or cells: HEK293T
T1 sequence (P0A3G2 other isoform, or with tags, fused parts or gaps with the stated changes): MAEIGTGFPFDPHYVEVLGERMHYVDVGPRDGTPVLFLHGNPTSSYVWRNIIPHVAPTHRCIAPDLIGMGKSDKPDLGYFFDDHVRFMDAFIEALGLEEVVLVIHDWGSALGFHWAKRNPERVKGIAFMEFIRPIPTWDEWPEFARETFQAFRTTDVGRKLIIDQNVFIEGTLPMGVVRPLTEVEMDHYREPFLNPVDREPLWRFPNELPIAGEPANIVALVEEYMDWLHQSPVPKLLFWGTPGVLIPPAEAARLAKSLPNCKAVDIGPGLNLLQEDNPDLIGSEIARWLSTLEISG
Procedure: FIGS. 13A-13C show kinetics of HT dye labeling and turnover in HEK293T cells. […] The sharpness of the dye transition was 7.5 min, as calculated by the width of the peak in the second derivative of fluorescence vs. position (purple). FIGS. 13B-13C show kinetics of HT dye reaction in HEK293T cells. HEK293T cells expressing a nucleus-targeted HT construct (HT-NLS, Addgene #82518) were incubated with 0.1 μM of the indicated dye (FIG. 3B) or 1 μM of the indicated dye (FIG. 3C), and nuclear fluorescence was monitored as a function of time. In FIG. 3B, HT-iPAK4 labeling experiments were performed with 10-fold higher dye concentrations (1 μM).
Dye additions appeared as upward-going kinks in the fluorescence profiles (FIGS. 12D, 13A), which were located as peaks in the second derivative of fluorescence vs. position. By dividing the transition zone widths (full-width at half-maximum of the peak in the second derivative) by the assembly-specific growth rates, a mean transition zone duration of 7.5 min was calculated (FIG. 13A). To determine whether the kinetics of HT dye labeling affected the widths of these transitions, the labeling of intracellular HT receptors was measured with several different HT dyes. These measurements probed the combined effects of membrane permeation and the HT reaction. The first-order reaction rate constants were 2.9 μM^−1 min^−1 (JF525), 0.13 μM^−1 min^−1 (JFX608), and 0.27 μM^−1 min^−1 (JF669) (FIG. 13B). […] The effective time constants at 1 μM dye were: 43 min (JF503), 3.5 min (JF525), 2.0 min (JF552), 12 min (JFX608), and 17 min (JF669) (FIGS. 13A and 13C). The precision of localizing a dye transition in an assembly is not equal to the labeling time constant, but rather the precision with which one can identify the onset of the labeling reaction. For all the JF dyes, this time was much less than 10 min.
Measurements of HT dye labeling kinetics in HEK293T cells: HEK293T cells were transfected with an inducible nuclear-localized HT protein (HT-NLS, Addgene #82518). Doxycycline (DOX, 2 μg/ml) was added 12 h after transfection to induce the expression of HT-NLS. 24 h after transfection, cells were incubated with 0.1 μM of the indicated dye, and nuclear fluorescence was monitored via wide-field epifluorescence microscopy as a function of time.

C[C@H]1c2cccc(O)c2C(=O)C2=C(O)[C@]3(O)C(=O)C(C(N)=O)=C(O)[C@@H](N(C)C)[C@@H]3[C@@H](O)[C@@H]21 [DOX, doxycycline]
duration of rise of eGFP-iPAK4 expression ([1]; 30-minute pulse of DOX): approximately 8 h
window of protein expression ([1]; 30-minute pulse of DOX): ~14 h
offset between DOX addition and start of the green stripe (y-intercept of linear fit) ([1]; DOX 2 μg/mL at t=2, 4 or 6 h, HEK cells, N=191 assemblies): 1.2 h

CCCCCCCCCCCCCC(=O)O[C@@H]1[C@@H](C)[C@@]2(O)[C@@H](C=C(CO)C[C@]3(O)C(=O)C(C)=C[C@@H]23)[C@@H]2C(C)(C)[C@]12OC(C)=O [PMA, phorbol 12-myristate 13-acetate]
delay of eGFP onset relative to PMA addition ([2]; PMA 1 μM at t=3, 6 or 9 h, neurons, extrapolated fit): 53 min
effect on cFos::eGFP-iPAK4 expression ([2]; PMA 1 μM, neurons co-expressing CMV::iPAK4 and cFos::eGFP-iPAK4): bands of bright green fluorescence
y-intercept of linear fit of eGFP onset ([2]; PMA at t=3, 6 or 9 h, neurons): ca. 1.0 h

JF525 [reference compound]
effective time constant of HT dye labeling [3]: 3.5 min
first-order reaction rate constant of HT dye labeling [3]: 48300 M⁻¹ s⁻¹

JFX608-HaloTag ligand
effective time constant of HT dye labeling [3]: 12 min
first-order reaction rate constant of HT dye labeling [3]: 2170 M⁻¹ s⁻¹
